Consider six molecules from paper PMC8510812, “Studies on the Incompatibility between Bulbus fritillariae and Radix aconiti praeparata Based on the P-gp” (Evidence-based Complementary and Alternative Medicine : eCAM, 2021).

Data set [1] concerns the target T1, P-gp (Homo sapiens, UniProt P08183).
T1 construct: host or cells: MDR1-MDCK cells
Format: cell-based. The note with it: MDR1-MDCK cells, n = 3.
Experimental: MDR1-MDCK cells, obtained from the College of Pharmaceutical Sciences in Zhejiang University (China), were cultured in DMEM containing 10% FBS, 100 µg/mL-100 U/mL penicillin-streptomycin, and 1% NEAA at 37°C in an atmosphere of 5% CO2 and 95% relative humidity. Cells were passaged at 80%–90% conﬂuence. P-gp inhibitors were screened by MDR1-MDCK cell transport study using the calcein-AM kit. Briefly, the cells were seeded in a 96-well black opaque plate and cultured for 48 h. Then, the cells were washed twice with PBS. 100 µL drug and 50 µL culture medium was added and preincubated at 37°C for 10 min. 50 µL 1 µM calcein-AM was added and incubated at 37°C for 1 h. Cold PBS was used to terminate the reaction. 100 µL 0.1% Triton-100 was added for cell permeability.
RFR was calculated by (4) RFR=RFU TS/RFU CS×100%. Here, RFU TS was the RFU of the test sample and RFU CS was the RFU of the control sample.

A further data set concerns ileum. The data set can be described thus: Rat SPIP, Peff of monoester alkaloids in Radix aconiti praeparata extract with or without Bulbus fritillariae. The note with it: n = 6, Figure 3. Format: in vivo. As for the experimental part:
(§1) Rats were anaesthetized by an intraperitoneal injection of urethane and then placed on a heated pad. The small intestine was exposed by surgery. 10 cm of the ileum segment was ligated and cannulated with glass tubing for perfusion. Caroline et al. reported that the level of P-gp expression in rat ileum was the highest. In order to better reflect the characteristics of P-gp, we selected the ileum segment. The cannulated segment was rinsed with saline (37°C), and attached to the perfusion assembly consisted of a syringe pump and a 50 ml syringe. The selected ileum was placed as “U” shape and covered with the gauze wet by saline. The perfusate was collected every 10 min at a flow rate of 0.2 ml/min for 90 min. The perfused intestine segment was removed and opened along the mesentery to measure the area. Samples were frozen immediately and stored at -20°C until analysis. Digoxin, an exclusive substrate of P-gp, was chosen as the FDA guidelines.
The concentrations of drugs in SPIP experiment were determined by HPLC. A MS-C18 column (5 μm, 4.6 mm × 150 mm, Agilent, USA) with an analytical TC-C18 guard column (5 μm, 4.6 mm × 12.5 mm, Agilent, USA) was maintained at 30°C. The analytical mobile phase about digoxin consisted of water and acetonitrile in a 75 : 25 (v/v) ratio. Benzoylaconine, benzoylmesaconine, and benzoylhypacoitine consisted of 0.05% acetic acid and methanol in a gradient from 85 : 15 to 55 : 45 (v/v) ratio. The flow rate was 1 mL/min. The injection volume was 10 µL. Digoxin was detected by absorbance at 220 nm and benzoylaconine, benzoylmesaconine, and benzoylhypacoitine at 235 nm.
P eff was calculated by the following equation:(1) Peff=−QinlnCoutQout/CinQin/2πrL. Here, Qin and Qout were the flow rate at inlet and outlet, respectively. Cin and Cout were the concentration at inlet and outlet, respectively. 2πrL was the mass transfer surface area within the intestinal segment, which was assumed to be the area of the cylinder with the radius (r) and length (L).

Data set [2] deals with P-gp. It is filed as in vivo, rat. The note with it: in the presence of verapamil, n = 6, Figure 10. As for the experimental part:
as §1
The concentrations of drugs in SPIP experiment were determined by HPLC. A MS-C18 column (5 μm, 4.6 mm × 150 mm, Agilent, USA) with an analytical TC-C18 guard column (5 μm, 4.6 mm × 12.5 mm, Agilent, USA) was maintained at 30°C. […] Digoxin was detected by absorbance at 220 nm and benzoylaconine, benzoylmesaconine, and benzoylhypacoitine at 235 nm.
P eff was calculated by the following equation:(1) Peff=−QinlnCoutQout/CinQin/2πrL. […]

Like-named read-outs stand apart in the source and are kept apart here.

T1 sequence (P08183 whole entry): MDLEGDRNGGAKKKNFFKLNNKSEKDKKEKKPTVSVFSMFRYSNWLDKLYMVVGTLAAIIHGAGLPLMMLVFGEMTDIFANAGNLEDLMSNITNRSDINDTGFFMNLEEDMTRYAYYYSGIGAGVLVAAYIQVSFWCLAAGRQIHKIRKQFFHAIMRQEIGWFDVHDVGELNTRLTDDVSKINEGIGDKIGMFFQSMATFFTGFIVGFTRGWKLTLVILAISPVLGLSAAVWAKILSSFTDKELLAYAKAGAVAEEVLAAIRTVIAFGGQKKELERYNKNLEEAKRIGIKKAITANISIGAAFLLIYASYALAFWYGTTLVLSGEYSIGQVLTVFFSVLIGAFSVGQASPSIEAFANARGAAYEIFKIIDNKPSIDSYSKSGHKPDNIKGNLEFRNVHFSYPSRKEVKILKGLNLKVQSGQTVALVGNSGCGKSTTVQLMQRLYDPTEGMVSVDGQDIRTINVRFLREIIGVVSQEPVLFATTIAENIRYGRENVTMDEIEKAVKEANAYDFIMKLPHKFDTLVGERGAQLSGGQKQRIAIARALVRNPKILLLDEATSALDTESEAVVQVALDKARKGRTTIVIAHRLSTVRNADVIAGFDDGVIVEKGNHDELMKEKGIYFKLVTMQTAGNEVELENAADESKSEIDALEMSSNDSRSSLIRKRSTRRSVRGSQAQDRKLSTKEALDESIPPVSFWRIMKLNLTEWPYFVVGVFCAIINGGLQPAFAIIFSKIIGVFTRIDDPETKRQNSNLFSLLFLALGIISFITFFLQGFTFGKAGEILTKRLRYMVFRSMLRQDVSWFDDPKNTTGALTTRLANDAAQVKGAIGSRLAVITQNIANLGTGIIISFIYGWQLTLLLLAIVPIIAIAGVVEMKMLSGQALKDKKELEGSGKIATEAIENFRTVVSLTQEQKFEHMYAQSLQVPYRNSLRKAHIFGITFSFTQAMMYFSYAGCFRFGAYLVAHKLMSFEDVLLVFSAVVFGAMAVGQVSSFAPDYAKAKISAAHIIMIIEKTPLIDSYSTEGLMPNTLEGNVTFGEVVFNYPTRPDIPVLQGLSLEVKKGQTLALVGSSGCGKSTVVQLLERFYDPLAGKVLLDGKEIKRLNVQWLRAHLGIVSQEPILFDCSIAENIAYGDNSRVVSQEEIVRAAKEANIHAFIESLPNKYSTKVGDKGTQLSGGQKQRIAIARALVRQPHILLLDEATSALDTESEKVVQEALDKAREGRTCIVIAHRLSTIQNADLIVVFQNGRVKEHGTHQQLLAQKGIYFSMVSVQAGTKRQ

Turning to `CC1=C2C[C@H]3[C@@H](CC(=O)[C@H]4C[C@@H](O)CC[C@@]43C)[C@@H]2CC[C@]12O[C@@H]1C[C@H](C)CN[C@H]1[C@H]2C` [Peimisine], the “RFR of calcein versus control group” value at P-gp [1] (high-dose group) and on P-gp [1] (low-dose group) was “highly significant differences” in each case.
As to `COC[C@@]12CC[C@H](OC)[C@]34C([C@H]([C@H](OC)[C@H]13)[C@]1(O)[C@H]3[C@@H](OC(=O)c5ccccc5)[C@](O)(C[C@H]34)[C@@H](OC)[C@@H]1O)N(C)C2` [Benzoylhypacoitine], in the data set with ileum, the “Peff of monoester alkaloid in Radix aconiti praeparata extract versus Radix aconiti praeparata + Bulbus fritillariae cirrhosae extract” value is reported as “No significant differences” and the “Peff of monoester alkaloid in Radix aconiti praeparata extract versus Radix aconiti praeparata + Bulbus fritillariae thunbergii extract” value was “No significant differences”. Also, the “Peff of monoester alkaloid in Radix aconiti praeparata extract versus that supplemented with verapamil” value with P-gp [2] is given as “No significant differences”.
On to `COC[C@]12CN(C)C3[C@@H]4[C@H](OC)[C@H]1[C@@]3([C@@H](OC)C[C@H]2O)[C@@H]1C[C@@]2(O)[C@H](OC(=O)c3ccccc3)[C@@H]1[C@]4(O)[C@@H](O)[C@@H]2OC` [Benzoylmesaconine], for which the “Peff of monoester alkaloid in Radix aconiti praeparata extract versus Radix aconiti praeparata + Bulbus fritillariae cirrhosae extract” value in the data set on ileum is “significant differences”.
Regarding `C[C@H]1CCC2N(C1)C[C@H]1C3CC4[C@@H](CC(=O)C5C[C@@H](O)CC[C@@]54C)C3CCC1[C@]2(C)O` (stereo partly shown) [Peiminine], the “RFR of calcein versus control group” value on P-gp [1] (high-dose group) and on P-gp [1] (low-dose group) was “no significant differences” in each case.
As to `CCN1C[C@]2(COC)[C@H](O)C[C@H](OC)[C@@]34[C@@H]5C[C@@]6(O)[C@H](OC(=O)c7ccccc7)[C@@H]5[C@@](O)([C@@H]([C@H](OC)[C@H]23)[C@@H]14)[C@@H](O)[C@@H]6OC` [Benzoylaconine], in the data set on ileum, the “Peff of monoester alkaloid in Radix aconiti praeparata extract versus Radix aconiti praeparata + Bulbus fritillariae cirrhosae extract” value is given as “No significant differences” and the “Peff of monoester alkaloid in Radix aconiti praeparata extract versus Radix aconiti praeparata + Bulbus fritillariae thunbergii extract” value is “No significant differences”. The “Peff of monoester alkaloid in Radix aconiti praeparata extract versus that supplemented with verapamil” value with P-gp [2] is on record as “No significant differences”.
For the molecule `C[C@H]1CC[C@@H]2N(C1)C[C@H]1[C@@H]3C[C@H]4[C@@H](C[C@H](O)[C@H]5C[C@@H](O)CC[C@@]54C)[C@@H]3CC[C@@H]1[C@]2(C)O` [Peimine], the results for the “RFR of calcein versus control group” value at P-gp [1] (high-dose group) and on P-gp [1] (low-dose group) were “highly significant differences” and “no significant differences”, respectively.
